Source: patent publication US20230286983A1 (4E Therapeutics, Inc., priority 2020, published 2023)
pIC50: −log10 of the molar value. Blank lines part the entries; values can stand above or below the compound they belong to.

Tests used:
MNK2 = MNK2 (Homo sapiens, UniProt Q9HBH9); test: MNK2 substrate phosphorylation assay; assay type: biochemical; details: recombinant human kinase
MNK1 = MNK1 (Homo sapiens, UniProt Q9BUB5); test: MNK1 substrate phosphorylation assay; assay type: biochemical; details: recombinant human kinase
MDCK-MDR1 = MDCK-MDR1 permeability (blood brain barrier permeability); assay type: in vitro ADME, Canine; details: 5 μM
[1] = test system: eIF4E phosphorylation at Serine 209 in the human embryonic kidney (HEK) 293 cell line; test: eIF4E phosphorylation in HEK 293 cells (fluorescent plate reader); assay type: cell-based; details: eIF4E phosphorylation at Serine 209, 2 hours exposure
In short: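 HEK-293 cells were treated with compound for 2 h, then methanol-fixed and Triton-permeabilized. Ser209 phospho-eIF4E was stained with primary antibody (1:2000, overnight) and an Alexa Fluor 488 secondary. Fluorescence was normalized to DAPI, and IC50 was fitted from concentration-response data.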

[2] = Liver microsome stability, mouse; assay type: in vitro ADME; details: mouse liver microsomes, Table 11b
IL-6 evoked grimace = IL-6 evoked grimace test; assay type: in vivo, ICR mice
Description: Institute for Cancer Research (ICR) mice were used in these experiments. Mice were bred in house at University of Texas at Dallas and used at between 12 and 24 weeks of age. Mice were habituated to plexiglass boxes of approximately 4×6 inches in size with openable tops. Habituation took place over 2 days with animals exposed to the boxes for at least 30 min. A blinded observer scored baseline grimacing using the method previously described by Mogil and colleagues (Langford, et al., Coding of facial expressions of pain in the laboratory mouse. Nat Methods (2010) 7:447-449.). On test day, mice were given test compounds 1 hr prior to injection of interleukin 6 (human recombinant IL-6, R&D Systems) which was given at a dose of 0.1 ng in saline via an intraplantar injection as described previously (Moy et al. The MNK-eIF4E Signaling Axis Contributes to Injury-Induced Nociceptive Plasticity and the Development of Chronic Pain. J Neurosci (2017) 37:7481-7499.). Test compounds were given orally (PO) via a flexible oral gavage canula built for mice. 4ET-01-021 (10.0, 3.0, and 1.0 mg/kg) and 4ET-03-052B (10.0 mg/kg) are efficacious in the IL-6 evoked grimace test in mice. FIG. 5 depicts a comparison of effect size in the IL-6 evoked grimace test. Effect sizes were calculated per mouse by subtracting the baseline grimace score from the sum of the grimace scores for 1 and 3 hr time points. […] FIG. 6 is a graph showing the effect size in the IL-6 evoked grimace test vs. dose of 4ET-01-021.

[3] = test system: eIF4E phosphorylation at serine 209 in various tumor cell lines; details: cited from earlier work
[4] = Liver microsome stability, human; assay type: in vitro ADME; details: liver microsomes
P-gp (human MDR1, ABCB1) = test: MDCK-MDR1 permeability (blood brain barrier permeability); assay type: in vitro ADME, Canine; details: dog, 5 μM, average of two experiments
[5] = Liver microsome stability, rat; assay type: in vitro ADME; details: Rat liver microsomes (#)
[6] = test system: diffuse large B cell lymphoma (DLBCL) cell lines; details: multiple DLBCL cell lines; cited from earlier work
[7] = molecular target: T1, protein kinase G 2 (PKG2) (Homo sapiens, UniProt Q13237); test: Off-target kinase screen PKG2; assay type: biochemical; details: 1 μM test compound
T1 sequence (Q13237 1-762): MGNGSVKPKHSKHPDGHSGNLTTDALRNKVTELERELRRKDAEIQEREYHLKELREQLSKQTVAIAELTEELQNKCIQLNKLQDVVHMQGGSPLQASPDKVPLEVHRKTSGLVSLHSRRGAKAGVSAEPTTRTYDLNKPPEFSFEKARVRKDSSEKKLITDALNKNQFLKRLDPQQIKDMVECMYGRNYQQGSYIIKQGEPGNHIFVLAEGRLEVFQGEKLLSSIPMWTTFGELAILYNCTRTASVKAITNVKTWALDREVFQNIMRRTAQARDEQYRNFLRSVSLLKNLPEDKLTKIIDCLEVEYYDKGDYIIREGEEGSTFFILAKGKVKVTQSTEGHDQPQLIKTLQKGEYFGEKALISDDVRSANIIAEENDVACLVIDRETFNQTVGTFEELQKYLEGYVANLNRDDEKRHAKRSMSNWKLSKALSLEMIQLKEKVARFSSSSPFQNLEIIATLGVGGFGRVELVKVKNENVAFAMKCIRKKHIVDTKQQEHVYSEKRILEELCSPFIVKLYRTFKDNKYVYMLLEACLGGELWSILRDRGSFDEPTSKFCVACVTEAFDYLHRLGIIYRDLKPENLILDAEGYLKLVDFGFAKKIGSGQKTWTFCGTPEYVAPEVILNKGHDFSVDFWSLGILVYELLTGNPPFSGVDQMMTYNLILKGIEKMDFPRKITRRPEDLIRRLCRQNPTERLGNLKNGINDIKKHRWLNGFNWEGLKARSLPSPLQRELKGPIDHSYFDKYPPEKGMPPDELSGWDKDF
From the text: (§1) These kinases were chosen because they are the only known off-target hit kinases for eFT508. These assays were done using recombinant human kinases (CLK4, DRAK1 and PKG2) in a substrate phosphorylation assay. % activity remaining after MNK inhibitor treatment is indicated in Table 12.

[8] = molecular target: Cdc2-like kinase 4 (CLK4) (Homo sapiens, UniProt Q9HAZ1); test: Off-target kinase screen CLK4; assay type: biochemical; details: 1 μM test compound
From the text: as §1

[9] = molecular target: T2, death-associated protein kinase-related apoptosis-inducing protein kinase 1 (DRAK1) (Homo sapiens, UniProt Q9UEE5); test: Off-target kinase screen DRAK1; assay type: biochemical; details: 1 μM test compound
T2 sequence (Q9UEE5 1-414): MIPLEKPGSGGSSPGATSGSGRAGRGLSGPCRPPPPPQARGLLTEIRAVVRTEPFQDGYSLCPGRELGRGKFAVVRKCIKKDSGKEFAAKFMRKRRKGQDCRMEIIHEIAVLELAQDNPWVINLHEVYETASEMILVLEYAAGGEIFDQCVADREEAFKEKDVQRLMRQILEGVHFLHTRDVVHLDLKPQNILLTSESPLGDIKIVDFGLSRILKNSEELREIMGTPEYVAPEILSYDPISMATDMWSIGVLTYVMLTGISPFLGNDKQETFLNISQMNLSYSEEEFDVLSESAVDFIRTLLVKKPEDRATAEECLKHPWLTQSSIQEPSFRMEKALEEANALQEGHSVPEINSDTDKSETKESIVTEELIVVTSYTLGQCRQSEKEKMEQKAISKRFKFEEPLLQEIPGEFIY
From the text: as §1

Sequence of MNK1 (Q9BUB5 whole entry): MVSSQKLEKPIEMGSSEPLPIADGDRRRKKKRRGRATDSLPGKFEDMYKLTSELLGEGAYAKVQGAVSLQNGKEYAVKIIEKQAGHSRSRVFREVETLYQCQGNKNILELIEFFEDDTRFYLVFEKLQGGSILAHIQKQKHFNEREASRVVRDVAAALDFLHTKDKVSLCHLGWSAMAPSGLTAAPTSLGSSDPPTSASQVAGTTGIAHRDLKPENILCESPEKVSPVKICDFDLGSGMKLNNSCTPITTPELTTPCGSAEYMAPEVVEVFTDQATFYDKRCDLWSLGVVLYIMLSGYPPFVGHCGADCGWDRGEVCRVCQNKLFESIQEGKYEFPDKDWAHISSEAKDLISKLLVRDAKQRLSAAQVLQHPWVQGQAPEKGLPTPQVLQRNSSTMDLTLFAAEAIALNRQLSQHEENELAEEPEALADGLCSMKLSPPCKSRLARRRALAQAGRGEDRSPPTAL
Sequence of Cdc2-like kinase 4 (CLK4) (Q9HAZ1 whole entry): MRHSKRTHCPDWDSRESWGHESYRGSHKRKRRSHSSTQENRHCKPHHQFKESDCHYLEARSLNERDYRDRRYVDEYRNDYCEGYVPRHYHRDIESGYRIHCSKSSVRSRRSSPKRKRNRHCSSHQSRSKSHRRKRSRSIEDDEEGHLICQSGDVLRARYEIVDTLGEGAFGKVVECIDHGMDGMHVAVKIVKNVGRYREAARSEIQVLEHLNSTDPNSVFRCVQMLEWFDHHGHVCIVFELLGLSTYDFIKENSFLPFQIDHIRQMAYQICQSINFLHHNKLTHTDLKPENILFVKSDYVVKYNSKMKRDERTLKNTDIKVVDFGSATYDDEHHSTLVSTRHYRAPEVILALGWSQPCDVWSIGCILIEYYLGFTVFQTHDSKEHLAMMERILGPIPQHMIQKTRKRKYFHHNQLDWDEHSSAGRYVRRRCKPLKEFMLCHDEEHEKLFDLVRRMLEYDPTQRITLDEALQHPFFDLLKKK
Sequence of MNK2 (Q9HBH9 whole entry): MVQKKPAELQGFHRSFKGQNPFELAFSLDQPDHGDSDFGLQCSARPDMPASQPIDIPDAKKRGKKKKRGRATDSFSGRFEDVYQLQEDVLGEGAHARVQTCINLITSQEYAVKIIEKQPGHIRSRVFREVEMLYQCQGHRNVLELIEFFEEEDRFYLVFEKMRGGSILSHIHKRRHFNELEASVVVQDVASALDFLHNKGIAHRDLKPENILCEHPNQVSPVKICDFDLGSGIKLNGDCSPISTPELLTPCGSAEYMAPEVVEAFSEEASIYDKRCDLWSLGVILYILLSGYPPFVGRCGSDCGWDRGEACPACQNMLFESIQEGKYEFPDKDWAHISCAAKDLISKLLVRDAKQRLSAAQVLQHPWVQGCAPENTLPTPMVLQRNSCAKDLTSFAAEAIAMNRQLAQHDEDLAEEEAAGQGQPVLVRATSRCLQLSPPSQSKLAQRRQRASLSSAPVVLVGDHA

pIC50 (MNK2): 8.79
pIC50 (MNK1): 7.70
Efflux ratio (ratio B-A/A-B) (MDCK-MDR1): 2.8
Papp A-B (MDCK-MDR1; Apical to basolateral transport, average of two experiments): 229 nm/s
Papp B-A (MDCK-MDR1; Basolateral to apical transport, average of two experiments): 633 nm/s
T1/2 [2]: 2.88 h
Structure (SMILES): Cc1cc(Nc2cc(NC(=O)C3CC3)ncn2)c(=O)n2c1C(=O)NC21Cc2ccccc2[C@@H]1F (single isomer, unassigned) [Compound 4ET-03-052B, N-(6-((1′-Fluoro-8-methyl-1,5-dioxo-1,1′,3′,5-tetrahydro-2H-spiro[imidazo[1,5-a]pyridine-3,2′-inden]-6-yl)amino)pyrimidin-4-yl)cyclopropanecarboxamide]
pIC50 [1]: 7.93
efficacy in the IL-6 evoked grimace test (IL-6 evoked grimace; PO 1 hr prior to IL-6, 4ET-01-021 10.0, 3.0 and 1.0 mg/kg, 4ET-03-052B 10.0 mg/kg): efficacious
effect size in the IL-6 evoked grimace test (IL-6 evoked grimace; sum of grimace scores at 1 and 3 hr minus baseline): statistically-significant effect sizes

Structure (SMILES): Cc1cc(Nc2cc(N)ncn2)c(=O)n2c1C(=O)NC21CCCCC1 [eFT508, reference compound]
pIC50 [3]: 7.80 to 8.70
microsomal CLint [4]: 1.88 µL/min/mg
half-life ([4]; read-out: Human liver microsomes t1/2): 12.3 h
Papp A→B at 5 μM (P-gp (human MDR1, ABCB1); MDCK-MDR1, Apical to basolateral transport): 268 nm/s
Papp B→A at 5 μM (P-gp (human MDR1, ABCB1); MDCK-MDR1, Basolateral to apical transport): 417 nm/s
microsomal CLint ([5]; read-out: CLint rodent): 2.86 µL/min/mg
half-life ([5]; read-out: Rodent liver microsomes t1/2): 8.07 h
anti-proliferative activity [6]: anti-proliferative activity
remaining activity at 1 µM [7]: 100%
half-life ([2]; mouse, liver microsomes, read-out: T1/2): 8.07 h
remaining activity at 1 µM [8]: 68%
remaining activity at 1 µM [9]: 24%
